Data: ChEMBL document CHEMBL3885861, “Open TG-GATES”

Species on record: Rattus norvegicus
Assay: Open TG-GATES - Regimen: Daily Repeat
Assay type: toxicity, organism-based, Sprague-Dawley
Design: regimen Daily Repeat, gender Male, age 6 weeks
Settings: in vivo, po, route gavage; for APTT / Bas / Eos / Fbg / Hb / Ht / Lym / MCH / MCHC / MCV / Mono / Neu / PT / Plat / RBC / Ret / WBC: tissue Blood; for KIDNEY_L / KIDNEY_R / KIDNEY_TOTAL: tissue Kidney; for LIVER: tissue Liver; for A/G / ALP / ALT / AST / BUN / CRE / Ca / Cl / DBIL / GLC / IP / K / LDH / Na / PL / RALB / TBIL / TC / TG / TP / gamma-GTP: tissue Plasma
[1] = 300 mg/kg, 72 h, dose level Middle, time 3 day
[2] = 300 mg/kg, […], dose level Middle, time 7 day
[3] = 300 mg/kg, […], dose level Middle, time 14 day
[4] = 300 mg/kg, […], dose level Middle, time 28 day
[5] = 1000 mg/kg, 72 h, dose level High, time 3 day
[6] = 1000 mg/kg, […], dose level High, time 7 day
[7] = 1000 mg/kg, […], dose level High, time 14 day
[8] = 1000 mg/kg, […], dose level High, time 28 day

## CCOc1ccc(NC(=O)CC(C)O)cc1 (centres undefined) [BUCETIN]
[1]
  TERMINAL_BW: 247.8 g
  APTT: 18.9 s
  Bas: 0%
  Eos: 1.2%
  Fbg: 291.2 mg/dL
  Hb: 13.1 g/dL
  Ht: 39.1%
  Lym: 72.8%
  MCH: 20.5 pg
  MCHC: 33.4%
  MCV: 61.3 fL
  Mono: 3.4%
  Neu: 21.6%
  PT: 14.2 s
  Plat: 123.5 x10_4/uL
  RBC: 638.8 x10_4/ul
  Ret: 6.8%
  WBC: 109.9 x10_2/uL
  KIDNEY_L: 1 g
  KIDNEY_R: 1 g
  KIDNEY_TOTAL: 2 g
  LIVER: 11.7 g
  A/G: 0.9
  ALP: 1855.6 IU/L
  ALT: 39.2 IU/L
  AST: 68.2 IU/L
  BUN: 15.2 mg/dL
  CRE: 0.2 mg/dL
  Ca: 10.8 mg/dL
  Cl: 104.8 meq/L
  DBIL: 0.024 mg/dL
  GLC: 184 mg/dL
  IP: 6.9 mg/dL
  K: 4.2 meq/L
  LDH: 99.6 IU/L
  Na: 143.4 meq/L
  PL: 164.2 mg/dL
  RALB: 2.7 g/dL
  TBIL: 0.052 mg/dL
  TC: 82.8 mg/dL
  TG: 116.2 mg/dL
  TP: 5.8 g/dL
  gamma-GTP: 1 IU/L
[2]
  TERMINAL_BW: 289.1 g
  APTT: 16.1 s
  Bas: 0%
  Eos: 1%
  Fbg: 278.6 mg/dL
  Hb: 13.4 g/dL
  Ht: 39.6%
  Lym: 74%
  MCH: 21.1 pg
  MCHC: 33.7%
  MCV: 62.5 fL
  Mono: 2.8%
  Neu: 21.6%
  PT: 14 s
  Plat: 120 x10_4/uL
  RBC: 634.2 x10_4/ul
  Ret: 6.8%
  WBC: 107.3 x10_2/uL
  KIDNEY_L: 1.2 g
  KIDNEY_R: 1.1 g
  KIDNEY_TOTAL: 2.3 g
  LIVER: 13.6 g
  A/G: 0.8
  ALP: 1676.6 IU/L
  ALT: 42.4 IU/L
  AST: 67.4 IU/L
  BUN: 15.8 mg/dL
  CRE: 0.2 mg/dL
  Ca: 11 mg/dL
  Cl: 105.2 meq/L
  DBIL: 0.018 mg/dL
  GLC: 190.6 mg/dL
  IP: 6.6 mg/dL
  K: 4.2 meq/L
  LDH: 115.2 IU/L
  Na: 143.8 meq/L
  PL: 178 mg/dL
  RALB: 2.7 g/dL
  TBIL: 0.04 mg/dL
  TC: 91.2 mg/dL
  TG: 131.2 mg/dL
  TP: 5.9 g/dL
  gamma-GTP: 1 IU/L
[3]
  TERMINAL_BW: 360.7 g
  APTT: 15.9 s
  Bas: 0%
  Eos: 1%
  Fbg: 312 mg/dL
  Hb: 14.4 g/dL
  Ht: 42.4%
  Lym: 75.2%
  MCH: 20.8 pg
  MCHC: 34.1%
  MCV: 61 fL
  Mono: 2.4%
  Neu: 21.2%
  PT: 13.8 s
  Plat: 113 x10_4/uL
  RBC: 695.6 x10_4/ul
  Ret: 4.7%
  WBC: 106.6 x10_2/uL
  KIDNEY_L: 1.4 g
  KIDNEY_R: 1.4 g
  KIDNEY_TOTAL: 2.7 g
  LIVER: 17.2 g
  A/G: 0.8
  ALP: 1729.4 IU/L
  ALT: 34.2 IU/L
  AST: 63 IU/L
  BUN: 15 mg/dL
  CRE: 0.2 mg/dL
  Ca: 11.2 mg/dL
  Cl: 104 meq/L
  DBIL: 0.02 mg/dL
  GLC: 189.4 mg/dL
  IP: 6.9 mg/dL
  K: 4 meq/L
  LDH: 72.8 IU/L
  Na: 143.4 meq/L
  PL: 179.2 mg/dL
  RALB: 2.8 g/dL
  TBIL: 0.048 mg/dL
  TC: 79.8 mg/dL
  TG: 208.6 mg/dL
  TP: 6.3 g/dL
  gamma-GTP: 1 IU/L
[4]
  TERMINAL_BW: 431.8 g
  APTT: 18.8 s
  Bas: 0%
  Eos: 1.4%
  Fbg: 274 mg/dL
  Hb: 14.7 g/dL
  Ht: 42.6%
  Lym: 74.6%
  MCH: 19.3 pg
  MCHC: 34.5%
  MCV: 56 fL
  Mono: 2.2%
  Neu: 20.6%
  PT: 14.1 s
  Plat: 106.2 x10_4/uL
  RBC: 760 x10_4/ul
  Ret: 3.5%
  WBC: 138.7 x10_2/uL
  KIDNEY_L: 1.6 g
  KIDNEY_R: 1.6 g
  KIDNEY_TOTAL: 3.2 g
  LIVER: 18.4 g
  A/G: 0.8
  ALP: 1081.4 IU/L
  ALT: 39 IU/L
  AST: 62.4 IU/L
  BUN: 15.2 mg/dL
  CRE: 0.3 mg/dL
  Ca: 11.2 mg/dL
  Cl: 104.8 meq/L
  DBIL: 0.028 mg/dL
  GLC: 188.8 mg/dL
  IP: 6.3 mg/dL
  K: 3.8 meq/L
  LDH: 78.8 IU/L
  Na: 145.4 meq/L
  PL: 170.6 mg/dL
  RALB: 2.8 g/dL
  TBIL: 0.07 mg/dL
  TC: 77.2 mg/dL
  TG: 188.2 mg/dL
  TP: 6.3 g/dL
  gamma-GTP: 1 IU/L
[5]
  TERMINAL_BW: 228.7 g
  APTT: 18.5 s
  Bas: 0%
  Eos: 0.8%
  Fbg: 270.2 mg/dL
  Hb: 12.8 g/dL
  Ht: 38.4%
  Lym: 72.6%
  MCH: 20.7 pg
  MCHC: 33.4%
  MCV: 61.9 fL
  Mono: 2.8%
  Neu: 22.6%
  PT: 14.1 s
  Plat: 123.8 x10_4/uL
  RBC: 620 x10_4/ul
  Ret: 2.9%
  WBC: 111.1 x10_2/uL
  KIDNEY_L: 1.1 g
  KIDNEY_R: 1 g
  KIDNEY_TOTAL: 2.1 g
  LIVER: 11.8 g
  A/G: 0.9
  ALP: 1511.6 IU/L
  ALT: 41.2 IU/L
  AST: 74 IU/L
  BUN: 15.4 mg/dL
  CRE: 0.2 mg/dL
  Ca: 10.6 mg/dL
  Cl: 106.8 meq/L
  DBIL: 0.028 mg/dL
  GLC: 168 mg/dL
  IP: 6.2 mg/dL
  K: 4.3 meq/L
  LDH: 76 IU/L
  Na: 144.6 meq/L
  PL: 161.4 mg/dL
  RALB: 2.6 g/dL
  TBIL: 0.06 mg/dL
  TC: 78.6 mg/dL
  TG: 102.2 mg/dL
  TP: 5.6 g/dL
  gamma-GTP: 1.2 IU/L
[6]
  TERMINAL_BW: 268.8 g
  APTT: 20.3 s
  Bas: 0%
  Eos: 1%
  Fbg: 270.6 mg/dL
  Hb: 12.7 g/dL
  Ht: 38.7%
  Lym: 67.2%
  MCH: 21 pg
  MCHC: 32.9%
  MCV: 64 fL
  Mono: 3.4%
  Neu: 27.6%
  PT: 14.3 s
  Plat: 126.9 x10_4/uL
  RBC: 606 x10_4/ul
  Ret: 9.2%
  WBC: 166.9 x10_2/uL
  KIDNEY_L: 1.1 g
  KIDNEY_R: 1.1 g
  KIDNEY_TOTAL: 2.3 g
  LIVER: 12.7 g
  A/G: 0.8
  ALP: 1387.6 IU/L
  ALT: 50 IU/L
  AST: 79.4 IU/L
  BUN: 16 mg/dL
  CRE: 0.2 mg/dL
  Ca: 10.9 mg/dL
  Cl: 106.2 meq/L
  DBIL: 0.032 mg/dL
  GLC: 180.8 mg/dL
  IP: 6.6 mg/dL
  K: 4.4 meq/L
  LDH: 97.4 IU/L
  Na: 144.4 meq/L
  PL: 162.8 mg/dL
  RALB: 2.8 g/dL
  TBIL: 0.08 mg/dL
  TC: 74.6 mg/dL
  TG: 133.4 mg/dL
  TP: 6 g/dL
  gamma-GTP: 1 IU/L
[7]
  TERMINAL_BW: 329.1 g
  APTT: 21.6 s
  Bas: 0.8%
  Eos: 0.6%
  Fbg: 295.4 mg/dL
  Hb: 12.9 g/dL
  Ht: 39.7%
  Lym: 69.2%
  MCH: 22.9 pg
  MCHC: 32.7%
  MCV: 70.1 fL
  Mono: 3%
  Neu: 26.2%
  PT: 14.3 s
  Plat: 126.3 x10_4/uL
  RBC: 567.8 x10_4/ul
  Ret: 10.4%
  WBC: 123.6 x10_2/uL
  KIDNEY_L: 1.3 g
  KIDNEY_R: 1.3 g
  KIDNEY_TOTAL: 2.7 g
  LIVER: 14.6 g
  A/G: 0.8
  ALP: 1241.8 IU/L
  ALT: 42.6 IU/L
  AST: 73.4 IU/L
  BUN: 14.2 mg/dL
  CRE: 0.2 mg/dL
  Ca: 10.8 mg/dL
  Cl: 105.8 meq/L
  DBIL: 0.036 mg/dL
  GLC: 170.4 mg/dL
  IP: 6.5 mg/dL
  K: 4.4 meq/L
  LDH: 97.8 IU/L
  Na: 143.6 meq/L
  PL: 150.8 mg/dL
  RALB: 2.8 g/dL
  TBIL: 0.1 mg/dL
  TC: 71.6 mg/dL
  TG: 91.2 mg/dL
  TP: 6.1 g/dL
  gamma-GTP: 1 IU/L
[8]
  TERMINAL_BW: 402.4 g
  APTT: 19.3 s
  Bas: 0.6%
  Eos: 1.2%
  Fbg: 278.2 mg/dL
  Hb: 14.3 g/dL
  Ht: 42.1%
  Lym: 78.2%
  MCH: 23.2 pg
  MCHC: 34%
  MCV: 68.4 fL
  Mono: 2.2%
  Neu: 17.4%
  PT: 14.4 s
  Plat: 102.2 x10_4/uL
  RBC: 618.4 x10_4/ul
  Ret: 8%
  WBC: 137.4 x10_2/uL
  KIDNEY_L: 1.6 g
  KIDNEY_R: 1.5 g
  KIDNEY_TOTAL: 3.1 g
  LIVER: 17.3 g
  A/G: 0.8
  ALP: 1352.6 IU/L
  ALT: 36.4 IU/L
  AST: 65 IU/L
  BUN: 16.8 mg/dL
  CRE: 0.3 mg/dL
  Ca: 11 mg/dL
  Cl: 104 meq/L
  DBIL: 0.042 mg/dL
  GLC: 182.2 mg/dL
  IP: 6.5 mg/dL
  K: 4 meq/L
  LDH: 93.4 IU/L
  Na: 143.8 meq/L
  PL: 155.8 mg/dL
  RALB: 2.9 g/dL
  TBIL: 0.1 mg/dL
  TC: 71.2 mg/dL
  TG: 117.2 mg/dL
  TP: 6.4 g/dL
  gamma-GTP: 1.4 IU/L
